Laboratory results published in patent US11053241B2, “TYK2 inhibitors and uses thereof” (Nimbus Lakshmi, Inc., priority 2018, dated 2021).

What follows are molecules tested against human TYK2 (JH2domain-pseudokinase) (Homo sapiens (Human), UniProt P29597) (assay: TYK2 JH2 Domain Binding Assay (KINOMEscan)). Details: 11-point 3-fold dilution, top concentration 30,000 nM, duplicate.
human TYK2 (JH2domain-pseudokinase), sequence (P29597 556-888): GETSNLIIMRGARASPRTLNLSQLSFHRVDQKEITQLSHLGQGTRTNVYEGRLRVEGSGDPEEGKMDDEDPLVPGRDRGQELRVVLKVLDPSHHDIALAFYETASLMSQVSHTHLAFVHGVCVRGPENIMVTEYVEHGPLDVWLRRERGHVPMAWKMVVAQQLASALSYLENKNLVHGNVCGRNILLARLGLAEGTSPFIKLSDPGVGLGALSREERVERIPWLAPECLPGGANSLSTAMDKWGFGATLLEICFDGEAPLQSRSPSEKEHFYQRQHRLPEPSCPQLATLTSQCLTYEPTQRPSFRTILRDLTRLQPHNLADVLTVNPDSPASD
Procedure: Binding constants for compounds of the present invention against the JH2 domain were determined by the following protocol for a KINOMEscan® assay (DiscoveRx). A fusion protein of a partial length construct of human TYK2 (JH2domain-pseudokinase) (amino acids G556 to D888 based on reference sequence NP_003322.3) and the DNA binding domain of NFkB was expressed in transiently transfected HEK293 cells. From these HEK 293 cells, extracts were prepared in M-PER extraction buffer (Pierce) in the presence of Protease Inhibitor Cocktail Complete (Roche) and Phosphatase Inhibitor Cocktail Set II (Merck) per manufacturers' instructions. The TYK2(JH2domain-pseudokinase) fusion protein was labeled with a chimeric double-stranded DNA tag containing the NFkB binding site (5′-GGGAATTCCC-3′) fused to an amplicon for qPCR readout, which was added directly to the expression extract (the final concentration of DNA-tag in the binding reaction is 0.1 nM).
Streptavidin-coated magnetic beads (Dynal M280) were treated with a biotinylated small molecule ligand for 30 minutes at room temperature to generate affinity resins for the binding assays. The liganded beads were blocked with excess biotin and washed with blocking buffer (SeaBlock (Pierce), 1% BSA, 0.05% Tween 20, 1 mM DTT) to remove unbound ligand and to reduce nonspecific binding.
The binding reaction was assembled by combining 16 μl of DNA-tagged kinase extract, 3.8 μl liganded affinity beads, and 0.18 μl test compound (PBS/0.05% Tween 20/10 mM DTT/0.1% BSA/2 μg/ml sonicated salmon sperm DNA). Extracts were used directly in binding assays without any enzyme purification steps at a ≥10,000-fold overall stock dilution (final DNA-tagged enzyme concentration <0.1 nM). Extracts were loaded with DNA-tag and diluted into the binding reaction in a two step process. First extracts were diluted 1:100 in 1× binding buffer (PBS/0.05% Tween 20/10 mM DTT/0.1% BSA/2 μg/ml sonicated salmon sperm DNA) containing 10 nM DNA-tag. This dilution was allowed to equilibrate at room temperature for 15 minutes and then subsequently diluted 1:100 in 1× binding buffer. All reactions were performed in polypropylene 384-well plates. Each was a final volume of 0.02 mL. Assays were incubated with shaking for 1 hour at room temperature. Then the beads were pelleted and washed with wash buffer (1×PBS, 0.05% Tween 20) to remove displaced kinase and test compound. The washed based were re-suspended in elution buffer (1×PBS, 0.05% Tween 20, 0.5 μM non-biotinylated affinity ligand) and incubated at room temperature with shaking for 30 minutes. The kinase concentration in the eluates was measured by qPCR. qPCR reactions were assembled by adding 2.5 μL of kinase eluate to 7.5 μL of qPCR master mix containing 0.15 μM amplicon primers and 0.15 μM amplicon probe. The qPCR protocol consisted of a 10 minute hot start at 95° C., followed by 35 cycles of 95° C. for 15 seconds, 60° C. for 1 minute.
Test compounds were prepared as 111× stocks in 100% DMSO. Kd values were determined using an 11-point 3-fold compound dilution series with three DMSO control points. All compounds for Kd measurements are distributed by acoustic transfer (non-contact dispensing) in 100% DMSO. The compounds were then diluted directly into the assays such that the final concentration of DMSO was 0.9%. The Kd values were determined using a compound top concentration of 30,000 nM. Kd measurements were performed in duplicate.
Binding constants (Kds) were calculated with a standard dose-response curve using the Hill equation: […]
The Hill Slope was set to −1. Curves were fitted using a non-linear least square fit with the Levenberg-Marquardt algorithm (Levenberg, K., A method for the solution of certain non-linear problems in least squares, Q. Appl. Math. 2, 164-168 (1944)).
With `CNC(=O)c1cnc(NC(=O)C2CC2)c2[nH]c(-c3cccc(-c4cn5c(n4)CCC5)c3F)cc12` [Compound I-69, 7-(cyclopropanecarboxamido)-2-(3-(6,7-dihydro-5H-pyrrolo[1,2-a]imidazol-2-yl)-2-fluorophenyl)-N-methyl-1H-pyrrolo[2,3-c]pyridine-4-carboxamide] the Kd was < 200 pM. `CCc1csc(-c2cc3c(C(=O)NC)cnc(NC(=O)C4CC4)c3[nH]2)n1` [Compound I-70, 7-(cyclopropanecarboxamido)-2-(4-ethylthiazol-2-yl)-N-methyl-1H-pyrrolo[2,3-c]pyridine-4-carboxamide] showed a Kd of 200 to 1000 pM. In the case of `CNC(=O)c1cnc(NC(=O)C2CC2)c2[nH]c(-c3ccc(OC)cc3[C@H]3COCCO3)cc12` [Compound I-71], the Kd is reported as > 10000 pM. `CNC(=O)c1cnc(NC(=O)C2CC2)c2[nH]c(-c3ccc(OC)cc3[C@@H]3COCCO3)cc12` [Compound I-72] was tested, and the Kd was > 10000 pM. In the case of `CNC(=O)c1cnc(NC(=O)C2CC2)c2[nH]c(-c3cccc(-c4nc(C)n(C)n4)c3F)cc12` [Compound I-73, 7-(cyclopropanecarboxamido)-2-(3-(1,5-dimethyl-1H-1,2,4-triazol-3-yl)-2-fluorophenyl)-N-methyl-1H-pyrrolo[2,3-c]pyridine-4-carboxamide], the Kd is reported as < 200 pM. `CNC(=O)c1cnc(NC(=O)C2CC2)c2[nH]c(-c3ccc(-c4nc(C)c(C)n4C)cc3F)cc12` [Compound I-74, 7-(cyclopropanecarboxamido)-2-(2-fluoro-4-(1,4,5-trimethyl-1H-imidazol-2-yl)phenyl)-N-methyl-1H-pyrrolo[2,3-c]pyridine-4-carboxamide] was tested, and the Kd was < 200 pM. `CNC(=O)c1cnc(NC(=O)C2CC2)c2[nH]c(-c3ccc(-c4ncc5n4CCCC5)cc3F)cc12` [Compound I-75, 7-(cyclopropanecarboxamido)-2-(2-fluoro-4-(5,6,7,8-tetrahydroimidazo[1,5-a]pyridin-3-yl)phenyl)-N-methyl-1H-pyrrolo[2,3-c]pyridine-4-carboxamide] was tested, and the Kd was < 200 pM. With `CNC(=O)c1cnc(NC(=O)C2CC2)c2[nH]c(-c3cccc(-c4cn5c(n4)OCCC5)c3F)cc12` [Compound I-76, 7-(cyclopropanecarboxamido)-2-(3-(6,7-dihydro-5H-imidazo[2,1-b][1,3]oxazin-2-yl)-2-fluorophenyl)-N-methyl-1H-pyrrolo[2,3-c]pyridine-4-carboxamide] the Kd was < 200 pM. With `CNC(=O)c1cnc(NC(=O)C2CC2)c2[nH]c(-c3c(F)cc(-c4nccn4C)cc3F)cc12` [Compound I-77, 7-(cyclopropanecarboxamido)-2-(2,6-difluoro-4-(1-methyl-1H-imidazol-2-yl)phenyl)-N-methyl-1H-pyrrolo[2,3-c]pyridine-4-carboxamide] the Kd was < 200 pM. For `CCOc1cc(-c2nccn2C)cc(F)c1-c1cc2c(C(=O)NC)cnc(NC(=O)C3CC3)c2[nH]1` [Compound I-78, 7-(cyclopropanecarboxamido)-2-(2-ethoxy-6-fluoro-4-(1-methyl-1H-imidazol-2-yl)phenyl)-N-methyl-1H-pyrrolo[2,3-c]pyridine-4-carboxamide], the Kd was < 200 pM. With `CNC(=O)c1cnc(NC(=O)C2CC2)c2[nH]c(-c3cccc(-c4cn5c(n4)COCC5)c3F)cc12` [Compound I-79, 7-(cyclopropanecarboxamido)-2-(3-(5,6-dihydro-8H-imidazo[2,1-c][1,4]oxazin-2-yl)-2-fluorophenyl)-N-methyl-1H-pyrrolo[2,3-c]pyridine-4-carboxamide] the Kd was < 200 pM. In the case of `CNC(=O)c1cnc(NC(=O)C2CC2)c2[nH]c(-c3ccn(-c4cnn(C)c4)n3)cc12` [Compound I-80, 7-(cyclopropanecarboxamido)-N-methyl-2-(1′-methyl-1′H-[1,4′-bipyrazol]-3-yl)-1H-pyrrolo[2,3-c]pyridine-4-carboxamide], the Kd is reported as < 200 pM. With `CNC(=O)c1cnc(NC(=O)C2CC2)c2[nH]c(-c3cccc(-c4cnc(C)o4)c3F)cc12` [Compound I-81, 7-(cyclopropanecarboxamido)-2-(2-fluoro-3-(2-methyloxazol-5-yl)phenyl)-N-methyl-1H-pyrrolo[2,3-c]pyridine-4-carboxamide] the Kd was < 200 pM. With `CNC(=O)c1cnc(NC(=O)C2CC2)c2[nH]c(-c3c(F)cc(-n4nccn4)cc3OC3CC3)cc12` [Compound I-82, 7-(cyclopropanecarboxamido)-2-(2-cyclopropoxy-6-fluoro-4-(2H-1,2,3-triazol-2-yl)phenyl)-N-methyl-1H-pyrrolo[2,3-c]pyridine-4-carboxamide] the Kd was > 10000 pM. `CNC(=O)c1cnc(NC(=O)C2CC2)c2[nH]c(-c3c(F)cc(-c4nccn4C)cc3N3CCC(F)(F)C3)cc12` [Compound I-83, 7-(cyclopropanecarboxamido)-2-(2-(3,3-difluoropyrrolidin-1-yl)-6-fluoro-4-(1-methyl-1H-imidazol-2-yl)phenyl)-N-methyl-1H-pyrrolo[2,3-c]pyridine-4-carboxamide] was tested, and the Kd was < 200 pM. `CNC(=O)c1cnc(NC(=O)C2CC2)c2[nH]c(-c3cccc(-c4cn5c(n4)C(C)(C)OCC5)c3F)cc12` [Compound I-84, 7-(cyclopropanecarboxamido)-2-(3-(8,8-dimethyl-5,6-dihydro-8H-imidazo[2,1-c][1,4]oxazin-2-yl)-2-fluorophenyl)-N-methyl-1H-pyrrolo[2,3-c]pyridine-4-carboxamide] was tested, and the Kd was < 200 pM. Molecule `CNC(=O)c1cnc(NC(=O)C2CC2)c2[nH]c(-c3cccc(OC4CCOCC4)c3F)cc12` [Compound I-85, 7-(cyclopropanecarboxamido)-2-(2-fluoro-3-((tetrahydro-2H-pyran-4-yl)oxy)phenyl)-N-methyl-1H-pyrrolo[2,3-c]pyridine-4-carboxamide] has a Kd of 200 to 1000 pM. With `CNC(=O)c1cnc(NC(=O)C2CC2)c2[nH]c(-c3c(F)cc(-c4nccn4C)cc3N3CCOCC3)cc12` [Compound I-86, 7-(cyclopropanecarboxamido)-2-(2-fluoro-4-(1-methyl-1H-imidazol-2-yl)-6-morpholinophenyl)-N-methyl-1H-pyrrolo[2,3-c]pyridine-4-carboxamide] the Kd was < 200 pM. With `CNC(=O)c1cnc(NC(=O)C2CC2)c2[nH]c(-c3cccc(C4=NC(C)(C)CO4)c3F)cc12` [Compound I-87, 7-(cyclopropanecarboxamido)-2-(3-(4,4-dimethyl-4,5-dihydrooxazol-2-yl)-2-fluorophenyl)-N-methyl-1H-pyrrolo[2,3-c]pyridine-4-carboxamide] the Kd was < 200 pM. `CNC(=O)c1cnc(NC(=O)C2CC2)c2[nH]c(-c3ccc(OC[C@@H]4CCCO4)cc3F)cc12` [Compound I-88, (S)-7-(cyclopropanecarboxamido)-2-(2-fluoro-4-((tetrahydrofuran-2-yl)methoxy)phenyl)-N-methyl-1H-pyrrolo[2,3-c]pyridine-4-carboxamide] was tested, and the Kd was < 200 pM. `CNC(=O)c1cnc(NC(=O)C2CC2)c2[nH]c(-c3ccc(C4COCCO4)cc3OC)cc12` (centres unmarked) [Compound I-89, 2-(4-(1,4-dioxan-2-yl)-2-methoxyphenyl)-7-(cyclopropanecarboxamido)-N-methyl-1H-pyrrolo[2,3-c]pyridine-4-carboxamide] was tested, and the Kd was 200 to 1000 pM. With `CNC(=O)c1cnc(NC(=O)C2CC2)c2[nH]c(-c3c(F)cc(-c4nccn4C)cc3N3CC[C@@H](OC)C3)cc12` [Compound I-90, (R)-7-(cyclopropanecarboxamido)-2-(2-fluoro-6-(3-methoxypyrrolidin-1-yl)-4-(1-methyl-1H-imidazol-2-yl)phenyl)-N-methyl-1H-pyrrolo[2,3-c]pyridine-4-carboxamide] the Kd was < 200 pM. In the case of `CNC(=O)c1cnc(NC(=O)C2CC2)c2[nH]c(-c3cccc([C@H]4C[C@@H](OC)C4)c3F)cc12` [Compound I-91, 7-(cyclopropanecarboxamido)-2-(2-fluoro-3-((1s,3s)-3-methoxycyclobutyl)phenyl)-N-methyl-1H-pyrrolo[2,3-c]pyridine-4-carboxamide], the Kd is reported as < 200 pM.
